# From article PMC8029583 (ACS chemical biology, 2020)
# Where a SMILES comes first, the peptide text is derived from it.
# Experiments:
# [1] = molecular target: T1, ComR receptor (Streptococcus mutans serotype c, UniProt Q8DWI6); assay: β-galactosidase reporter activation; format: cell-based
# [2] = molecular target: T1, ComR receptor; assay: β-galactosidase reporter inhibition; format: cell-based; settings: SMCOM2 in CDM; primary antagonism screening (Figure S-3)
compound,measurement,setting,value
"CC(C)C[C@H](NC(=O)[C@H](C)NC(=O)[C@H](Cc1c[nH]c2ccccc12)NC(=O)[C@H](Cc1c[nH]c2ccccc12)NC(=O)[C@H](C)NC(=O)[C@H](CC(C)C)NC(=O)[C@H](C)N)C(=O)O [XIP-G1AD3AS6A (P30), ALAWWAL] (H-ALAWWAL-OH)",comX activation (partial agonist),"[1]; SMCOM2 in CDM, from dose response curve",~ 30%
"CC(C)C[C@H](NC(=O)CN)C(=O)N[C@@H](CC(=O)O)C(=O)N[C@@H](Cc1c[nH]c2ccccc12)C(=O)N[C@@H](Cc1c[nH]c2ccccc12)C(=O)N[C@@H](CO)C(=O)N[C@@H](C)C(=O)O [XIP-L7A (P8), GLDWWSA] (H-GLDWWSA-OH)",inhibition of ComR activation,[2],~ 80%
"CC(C)C[C@H](NC(=O)[C@H](CO)NC(=O)[C@H](Cc1c[nH]c2ccccc12)NC(=O)[C@H](C)NC(=O)[C@H](CC(=O)O)NC(=O)[C@H](CC(C)C)NC(=O)CN)C(=O)O [XIP-W4A (P5), GLDAWSL] (H-GLDAWSL-OH)",inhibition of ComR activation,[2],~ 90%
GLD [XIP-Des-W4W5S6L7 (P43)],activity / agonism against ComR (in words),[1]; SMCOM2 reporter in CDM,inactive
GLdWWSL [XIP-d3 (P10)],activation,"[1]; SMCOM2 in CDM, at 100 μM concentration",~ 45%
